Assay results from PubChem BioAssay (NCI).
Values joined by “and” are separate entries in the source; they are usually repeats but may differ in a detail not shown here. Equal entries are not always repeated.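 A five-concentration, 48-hour dose response in 96-well plates underlies each endpoint, interpolated linearly between surrounding concentrations. Abbreviation: GI50, concentration required for 50% inhibition of growth. Definition used: TGI = concentration required for complete inhibition of growth.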

Assays:
Test in all cases: growth of human tumour cells (NCI), 48 h
SF-539 CNS = tested on: SF-539 CNS
SK-MEL-5 melanoma = tested on: SK-MEL-5 melanoma
SK-OV-3 ovarian = tested on: SK-OV-3 ovarian
HL-60(TB) leukemia = tested on: HL-60(TB) leukemia
UO-31 renal = tested on: UO-31 renal
HCT-15 colon = tested on: HCT-15 colon
SF-268 CNS = tested on: SF-268 CNS
HCT-116 colon = tested on: HCT-116 colon
786-0 renal = tested on: 786-0 renal
HCC-2998 colon = tested on: HCC-2998 colon

SMILES	TGI (SF-539 CNS) [nM]	TGI (SK-MEL-5 melanoma)	TGI (SK-OV-3 ovarian)	TGI (HL-60(TB) leukemia) [nM]	TGI (UO-31 renal)	TGI (HCT-15 colon)	TGI (SF-268 CNS)	TGI (HCT-116 colon)	TGI (786-0 renal)	TGI (HCC-2998 colon)	GI50 (SF-539 CNS) [nM]	GI50 (SK-MEL-5 melanoma) [nM]	GI50 (SK-OV-3 ovarian) [nM]	GI50 (UO-31 renal) [nM]	GI50 (SF-268 CNS) [nM]	GI50 (HCT-116 colon) [nM]	GI50 (786-0 renal) [nM]	GI50 (HCC-2998 colon) [nM]	GI50 (HL-60(TB) leukemia) [nM]	GI50 (HCT-15 colon) [nM]
CCCCCCCCCCCCCC1CCC(CC)N1 (stereo unspecified)	32100	31800 nM	30700 nM	21200	27400 nM	16500 nM	22400 nM	29600 nM	31500 nM	18700 nM	–	–	–	–	–	–	–	–	–	–
CCC1(O)C(=O)OCc2c1cc1n(c2=O)Cc2cc3ccc(C=O)cc3nc2-1 (stereo unspecified)	–	6950 nM and 6230 nM	50000 nM and 52100 nM	5990	5140 nM and 7980 nM	40200 nM and > 62400 nM	50000 nM and 40000 nM	7290 nM and 16400 nM	9180 nM and 4950 nM	10400 nM and 26100 nM	1690	1570	7450	1080	376	519	450	2520	–	–
CC(=O)OC1CC(O)C23COC(O)C1(C)C2CC(O)C1(C)C3C(=O)C(O)C2(C)C(c3ccoc3)CC3OC321 (stereo unspecified)	> 100000	–	> 100000 nM	> 100000	> 41400 nM	> 100000 nM	> 100000 nM	> 100000 nM	> 64200 nM	> 100000 nM	140	< 10	> 100000	3080	2200	< 10	89.7	420	< 10	1260
CCN(CC)c1ccc(C(=N)c2ccc(N(CC)CC)cc2)cc1	2430	1240 nM	2890 nM	1130	2640 nM	2280 nM	2670 nM	1350 nM	2050 nM	3170 nM	830	342	854	557	602	323	646	1100	276	416
CCC#CC[C@H]1C/C=C2/C(=O)C=C[C@@H]2C/C=C\CCCC(=O)O1	7670	1710 nM	7740 nM	4230	1560 nM	2140 nM	4550 nM	2610 nM	2400 nM	1800 nM	1940	854	2360	730	1230	430	1060	991	1070	670
COc1c2c(cc3nc4ccccc4nc13)CCC(C(C)(C)O)C2 (stereo unspecified)	> 100000	> 100000 nM	> 100000 nM	76000	> 100000 nM	> 100000 nM	> 100000 nM	> 100000 nM	> 100000 nM	> 100000 nM	–	–	–	–	–	–	–	–	–	–
COc1ccc2c(c1)C(=O)c1c-2n(CCCn2ccnc2)c(=O)c2ccccc12	906	344 nM	4590 nM	18400	476 nM	7720 nM	> 25300 nM	740 nM	1660 nM	2910 nM	244	154	595	86.7	214	235	239	720	1490	1240
Cc1ccc(C(=NN=C(N)N)c2ccc(C)cc2)cc1	6990	1500 nM	10200 nM	685	9760 nM	8860 nM	6570 nM	4480 nM	2860 nM	1930 nM	2100	427	1160	1730	636	372	623	683	214	773
N#Cc1nc(C2OC(COC(=O)c3ccccc3)C(OC(=O)c3ccccc3)C2OC(=O)c2ccccc2)oc1N (stereo unspecified)	> 100000	40000 nM	> 100000 nM	36300	66800 nM	> 100000 nM	> 100000 nM	> 100000 nM	> 100000 nM	> 100000 nM	–	–	–	–	–	–	–	–	–	–
CC(C)c1ccc(C(=O)Nc2sc3c(c2C(N)=O)CCC(=O)C3)cc1	1490	2560 nM	8020 nM	4820	1100 nM	2120 nM	3450 nM	1430 nM	10500 nM	4230 nM	359	1140	2620	267	571	311	2290	1850	615	387
COc1ccc(C(C)c2cc3c(cc2OC)OCO3)cc1 (stereo unspecified)	275	2310 nM	27000 nM	2870	> 100000 nM	13500 nM	> 56200 nM	46300 nM	> 53400 nM	3620 nM	–	–	–	–	–	–	–	–	–	–
Cc1cn2c(/C=C3/C(=O)N(C)c4ccccc43)c(C)nc2s1	52900	25500 nM	31900 nM	6190	> 100000 nM	> 100000 nM	> 100000 nM	> 100000 nM	> 100000 nM	33500 nM	10700	4710	6870	17200	22100	5020	20100	7970	2420	5250
CCOC(=O)Sc1ncnc2nc[nH]c12	> 100000	> 100000 nM	> 100000 nM	6700	> 100000 nM	> 100000 nM	> 100000 nM	> 100000 nM	> 100000 nM	> 100000 nM	2350	5960	484	4140	3890	2310	2310	3130	1420	2860
CC/C=C\C[C@@H]1C/C=C2/C(=O)C=C[C@H]2C/C=C\CCCC(=O)O1	2970	1430 nM	7940 nM	716	2230 nM	865 nM	3670 nM	320 nM	2180 nM	533 nM	533	348	2490	929	1340	133	818	259	277	242
